Like-named read-outs stand apart in the source and are kept apart here.
Columns and labels:
[1] = test system: B6 mice; experiment: Tail-flick test; format: in vivo, mouse; parameters: key to Activity of tail-flick test: ++: 25 mg/kg (intravenous) or 50 nmol (intrathecal) active; +: 100 mg/kg (intravenous) active; conditions: mice; compound given intravenous or intrathecal
Protocol: In an exemplary in vivo method, a test compound and a MOR antagonist are injected into a mouse pain model (for example, intravenous but not limited), basal latencies are recorded before the treatment and test latencies are recorded at various specified times after the injection, and a time-response curve is recorded and AUC values are calculated to determine whether an analgesic effect is exerted on the mouse. The test compound is confirmed to be an antagonist-to-agonist allosteric modifier of the MOR upon observation of an analgesic effect.
Male wild-type (WT) B6 mice (25-30 g) were kept in a temperature-controlled animal room with a 12-h light/dark cycle. The protocol has been approved by the Institutional Animal Care and Use Committee of the National Health Research Institutes, Taiwan. Animal experiments were carried out in accordance with the Policies on the Use of Animals in Neuroscience Research and the ethical guidelines for investigations of experimental pain in conscious animals, International Association for the Study of Pain. Tail-Flick Analgesia Meter (Columbia Instruments) was used to measure the tail-flick latencies of mice. The cut-off time for each measurement was 10 s to avoid tissue damage. Basal latencies were recorded before treatment and test latencies were recorded 30, 60, 90, 120 and 180 min after an intravenous injection of drugs. […] ED50 values were determined by the up-and-down method reported in Crocker et al., Pharmacol Biochem Behav, 1984, 21, 133-136.
An in vivo study, i.e., tail-flick test, was performed to investigate whether AAMs could change innate character of μ-opioid receptor in the presence of naloxone. […] In mice injected with naloxone (10 mg/kg; s.c.), the ED50 value of compound 58 in inhibition of the tail-flick response was determined to be 23.1±7.1 nmole.

[2] = test system: DOR; experiment: cAMP assay (adenylyl cyclase inhibition) in HEK-DOR cells; format: cell-based
Protocol: Human embryonic kidney 293 (HEK-293) cells constitutively expressing MOR (HEK-MOR) and DOR (HEK-DOR) (kindly provided by Dr. Ping-Yee Law, University of Minnesota, USA) were cultured in high-glucose Dulbecco's modified Eagle's medium (DMEM, GIBCO) supplemented with 400 μg/mL G418 (Sigma), 2 mM L-glutamine and P/S/F (100 units/mL penicillin, 100 μg/mL streptomycin, 10% fetal bovine serum). Chinese hamster ovary (CHO)-K1 cells, stably expressing hMOR and Gα15 (CHO-K1/MOR/Gα15), were cultured in F12 medium (GIBCO) supplemented with 10 μg/mL Hygromycin B (Invivogen), 20 μg/mL Zeocin (Invivogen) P/S/F (100 units/mL penicillin, 100 μg/mL streptomycin, 10% fetal bovine serum). The cultures were incubated at 37° C. in a humidified 5% CO2 incubator.
Briefly, 2000 HEK-MOR cells or HEK-DOR cells were plated in 10 μL/well of DMEM in 96-well solid bottom white plates and 10 μL/well compound in HBSS in the presence with 1 μM forskolin and 100 μM 3-isobutyl-1-methylxanthine (IBMX). After 30 minutes of incubation at room temperature, 10 μL/well of labeled d2-cAMP and 10 μL/well of anti-cAMP antibody (both diluted in lysis buffer) were added to each well. Two hours later, plates were measured using the FlexStationIII (Molecular Devices Corp.) with excitation at 330 nm and emissions of 620 nm and 665 nm.
To characterize of novel opioid receptor AAMs, the activity and selectivity of compound 58 were tested by inhibiting adenylyl cyclase activity (i.e., cAMP assay).
Opoid receptors inhibit adenylyl cyclase activity through Gi/o family of heterotrimeric G proteins. A cAMP-accumulation assay was performed to determine whether opioid receptor AAMs affect a G protein-dependent signaling pathway.

[3] = biological target: mu-opioid receptor (MOR) (Homo sapiens (Human), UniProt P35372); experiment: cell-based; conditions: combined with a MOR antagonist; for AUC: AUC of [Ca2+]i fluorescence
Sequence of mu-opioid receptor (MOR) (P35372 whole entry): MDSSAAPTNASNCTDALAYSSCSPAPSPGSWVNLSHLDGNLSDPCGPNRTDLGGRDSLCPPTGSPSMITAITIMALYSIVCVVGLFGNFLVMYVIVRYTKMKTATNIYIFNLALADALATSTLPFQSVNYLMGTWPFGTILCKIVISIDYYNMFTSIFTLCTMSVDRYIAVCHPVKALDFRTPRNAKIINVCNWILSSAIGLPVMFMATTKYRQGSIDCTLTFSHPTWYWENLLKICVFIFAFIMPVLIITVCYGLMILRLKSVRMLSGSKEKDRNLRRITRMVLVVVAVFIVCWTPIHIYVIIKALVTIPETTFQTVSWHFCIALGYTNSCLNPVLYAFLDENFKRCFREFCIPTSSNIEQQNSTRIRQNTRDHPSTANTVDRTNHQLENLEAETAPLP

Molecule	FLIPR Ca^2+ AUC [3]	EC50 ([3]; read-out: FLIPR Ca^2+ EC50)	EC50 ([3]; EC50, CHO-K1/MOR/Gα15 cells)	AUC ([3]; CHO-K1/MOR/Gα15 cells)	further results
N-Cyclobutyl-4-[2-(4-fluorophenyl)-4-oxo-1, 3-thiazolidin-3-yl]-3-methylbenzamide [Example 255]					Activity of tail-flick test [1]: +
[D-Pen(2),D-Pen(5)]-enkephalin [DPDPE]					cAMP-inhibition response ([2]; % of forskolin-stimulated (1 μM) cAMP accumulation): 60%; EC50 ([2]; agonist alone): 0.0005 µM
CC(=O)N1CCC(CCOC(=O)c2ccc(N3C(=O)CSC3c3ccc(F)cc3)c(C)c2)CC1 (stereo not shown) [Example 299]	10053	5 µM			
Cc1ccc(F)cc1N1C(=O)CSC1c1ccc(F)cc1 (stereo not shown) [Example 112]			< 10 µM		
Cc1cc(C(=O)NS(=O)(=O)CC(C)C)ccc1N1C(=O)CSC1c1ccc(F)cc1 (stereo not shown) [Example 167]	9905	3.4 µM	< 10 µM	more than 5000	
Cc1noc(N2C(=O)CSC2c2ccc(F)cc2)c1C (stereo not shown) [Example 395]	7107	12 µM		more than 5000	
Cc1cc(C#N)ccc1N1C(=O)CSC1c1ccc(F)cc1 (stereo not shown) [Example 46]			< 10 µM		
Cc1cc(CC(=O)O)ccc1N1C(=O)CSC1c1ccc(F)cc1 (stereo not shown) [Example 101]			< 10 µM		
Cc1cc(C(=O)NS(=O)(=O)c2ccc(C#N)cc2)ccc1N1C(=O)CSC1c1ccc(F)cc1 (stereo not shown) [Example 187]	12927	3.3 µM			
Cc1cc(C(=O)NS(=O)(=O)C2CCCCC2)ccc1N1C(=O)CSC1c1ccc(F)cc1 (stereo not shown) [Example 171]	10272	3.7 µM	< 10 µM	more than 5000	
Cc1c(N2C(=O)CSC2c2ccc(F)cc2)c(=O)n(-c2ccccc2)n1C (stereo not shown) [Example 411]	8099	20 µM		more than 5000	
Cc1ccc(Cl)cc1N1C(=O)CSC1c1ccc(F)cc1 (stereo not shown) [Example 147]	11516	3.2 µM	< 10 µM	more than 5000	
Cc1cc(C(=O)NS(=O)(=O)C2CC2)ccc1N1C(=O)CSC1c1ccc(F)cc1 (stereo not shown) [Example 169]	13189	3 µM	< 10 µM	more than 5000	
CCOc1ccc(N2C(=O)CSC2c2ccc(F)cc2)cc1Cl (stereo not shown) [Example 20]			< 10 µM		
COC(=O)Cc1ccc(N2C(=O)CSC2c2ccc(F)cc2)c(C)c1 (stereo not shown) [Example 96]	9657	10 µM	< 10 µM	more than 5000	
Cc1cc(C(N)=O)ccc1N1C(=O)CSC1c1ccc(F)cc1 (stereo not shown) [Example 329]	13749	1.7 µM	< 10 µM	more than 5000	

Molecule	FLIPR Ca^2+ AUC [3]	EC50 ([3]; read-out: FLIPR Ca^2+ EC50)	EC50 ([3]; EC50, CHO-K1/MOR/Gα15 cells)	AUC ([3]; CHO-K1/MOR/Gα15 cells)	further results
4-[2-(4-Fluorophenyl)-4-oxo-1,3-thiazolidin-3-yl]-N-methoxy-3-methylbenzamide [Example 154]	15447	3.7 µM		more than 5000	EC50 ([3]; CHO-K1/MOR/Gα15 cells, read-out: EC50): < 10 µM
Cc1cc(C(=O)NCCN(C)C)ccc1N1C(=O)CSC1c1ccc(F)cc1 (stereo not shown) [Example 340]	9445	10 µM			
Cc1cc(C(=O)OC(C)C)ccc1N1C(=O)CSC1c1ccc(F)cc1 (stereo not shown) [Example 231]			< 10 µM		
Cc1cc(C(=O)OCCN(C)C)ccc1N1C(=O)CSC1c1ccc(F)cc1 (stereo not shown) [Example 290]	14778	10 µM			
Cc1cc(C(=O)NS(=O)(=O)C(F)(F)F)ccc1N1C(=O)CSC1c1ccc(F)cc1 (stereo not shown) [Example 175]	13866	1.6 µM			
Cc1cc(C)c(S(=O)(=O)NC(=O)c2ccc(N3C(=O)CSC3c3ccc(F)cc3)c(C)c2)c(C)c1 (stereo not shown) [Example 192]	11866	1.4 µM	< 10 µM	more than 5000	
Cc1cc(C(=O)NS(=O)(=O)Cc2cccc(F)c2)ccc1N1C(=O)CSC1c1ccc(F)cc1 (stereo not shown) [Example 177]	16276	2.2 µM			
Cc1cc(C(=O)NOCc2ccccc2)ccc1N1C(=O)CSC1c1ccc(F)cc1 (stereo not shown) [Example 217]	9543	4.1 µM			
CCOC(=O)N1CCC(NC(=O)c2ccc(N3C(=O)CSC3c3ccc(F)cc3)c(C)c2)CC1 (stereo not shown) [Example 350]	12979	4.4 µM			
COc1cccc(NC(=O)c2ccc(N3C(=O)CSC3c3ccc(F)cc3)c(C)c2)c1 (stereo not shown) [Example 368]	8915	6.7 µM	< 10 µM	more than 5000	
Cc1cc(C(=O)NCCc2cccc(F)c2)ccc1N1C(=O)CSC1c1ccc(F)cc1 (stereo not shown) [Example 385]	7501	3.9 µM			
Cc1cc(C(=O)O)ccc1N1C(=O)CSC1c1ccc(F)c(F)c1 (stereo not shown) [Example 62]	21586	1.6 µM	< 10 µM	more than 5000	
Cc1ccc(C(=O)O)cc1N1C(=O)CSC1c1ccc(F)cc1 (stereo not shown) [Example 54]	8906	3.3 µM			
Cc1cc(C(=O)OCCC#N)ccc1N1C(=O)CSC1c1ccc(F)cc1 (stereo not shown) [Example 269]	14183	12.3 µM			
Cc1cc(C(=O)NS(=O)(=O)c2c(C)noc2C)ccc1N1C(=O)CSC1c1ccc(F)cc1 (stereo not shown) [Example 213]	9005	0.9 µM	< 10 µM	more than 5000	
Cc1c(F)cccc1N1C(=O)CSC1c1ccc(F)cc1 (stereo not shown) [Example 109]	9614	2.6 µM			

Source: patent publication US10544113B2 (priority 2016, dated 2020)
